Data on one molecule can be found in patent US20190388389A1, “METHODS AND COMPOSITIONS OF CARNOSOL FOR INHIBITING UVB-INDUCED SKIN DAMAGE” (Ohio University, priority 2017, published 2019).

The test system of one series is phosphor-Chk. The series can be described thus: Western blot of DNA damage marker, MEF cells. The series is classed as cell-based, mouse. The conditions noted are these: early stage post UVB 50 mJ/cm^2. How it is done:
(§1) FIGS. 5A-5B: Carnosol protects UVB-induced DNA damage. (FIG. 5A) HaCaT cells and (FIG. 5B) MEF cells were exposed to 50 mJ/cm^2 UVB radiation in the presence or absence of carnosol. Cells were lysed at indicated time point and protein levels of phosphorylated H2AX and Chk were measured. The data represents three sets of independent experiments.
(§2) Cells were lysed with Nonidet P-40 (NP-40) lysis buffer (2% NP-40, 80 mM NaCl, 100 mM Tris-HCl pH 8.0, 0.1% SDS) with proteinase inhibitor mixture (Complete™, Roche Molecular Biochemicals) at indicated time point. Cell lysate was incubated on ice for 15 min and then centrifuged at 14,000 rpm at 4° C. for 15 min. Protein concentration was measured by Protein DC Assay kit (Bio-Rad Laboratories). Equal amounts of protein were subjected on SDS-PAGE and transferred to a nitrocellulose membrane. The membrane was then blocked in 5% milk in Tris buffered saline plus Tween 20 ® (TBST) for 45 min and probed with anti-yH2AX (Cell Signaling), anti-pCHK (Cell Signaling), anti-p276-NF-κB (Santa Cruz), anti-NF-κB p65 (Santa Cruz), anti-IκB (Santa Cruz), or anti-β-actin (Santa Cruz) at 4° C. overnight. After washing with TBST, the membrane was incubated with corresponding HRP-conjugated anti-rabbit or anti-mouse antibody for 45 min at room temperature. […]
(In general: In western blotting, separated proteins are transferred to a membrane and probed.)

Series [1] deals with γH2AX (phosphorylated H2AX). The series can be described thus: Western blot of DNA damage marker, MEF cells. The format is cell-based, mouse. The conditions noted are these: early stage post UVB 50 mJ/cm^2. How it is done:
as §1, §2

Series [2] relates to 6-4 photoproducts (6-4PP). The series can be described thus: Quantitative measurement of 6-4 photoproducts after UVB. The series is classed as cell-based. The conditions noted are these: with vs without carnosol. From the text:
FIG. 5F: Quantitative measurement of 6-4 photoproducts (6-4PP), with and without UVB, and with and without carnosol. *p<0.05 versus corresponded control group
There are two major forms of DNA damage caused by UVB radiation: one is the direct DNA damage which forms CPD; the other is the oxidation-caused DNA damage, which causes the formation of 6-4 PP. In order to identify which form of DNA damage is protected by carnosol, a quantitative assay to identify the production of both DNA damage products after UVB radiation with or without carnosol treatment was performed.

Series [3] is described as follows: UVB irradiation of carnosol in DMSO, Mass Spectrum. The series is classed as physicochemical. The conditions noted are these: 50 mJ/cm^2 UVB. As to the method:
FIG. 10B. The carnosol was irradiated with UVB first in the DMSO solution, and then a Mass Spectrum was run to detect the decomposition of the compound.
FIG. 10C. Four major decomposed compounds were detected, with their molecular structure and weight solved.
UVB was generated from a Bench XX-Series UV Lamp (UVP Inc.) equipped with two 15-watt UVB tubes (UVP Inc.). The intensity of UVB was calibrated by a UVP model UVX digital radiometer (UVP Inc.) after the lamps warmed up for 5 min. For irradiating cells, the dose rate for 8 mJ/cm^2 or 50 mJ/cm^2 of UVB radiation was 0.8 or 3.8 mW/s respectively. Medium was removed before exposing the cells to UVB. After UVB radiation, fresh medium was added to the culture plates with or without drugs, and the cells were continue incubating at 37° C. with 5% CO2 until further analysis. Carnosol was disovled in DMSO and was irradiated with 50 mJ/cm^2 of UVB radiation at a dose rate of 3.8 mW/s before subjecting to cells or structure analysis using Mass Spectrum.

For the next series, the system named is HaCaT cells. As to the kind of experiment: HaCaT transformation in soft agar after repeated UVB. The conditions noted are these: 10 mJ/cm^2 UVB every 48 h for 14 days, soft agar 10 days; UVB alone about 3.5 fold. The series is classed as cell-based, Human. As to the method: FIG. 8: Carnosol decreases HaCaT transformation rate upon UVB radiation. HaCaT cells were exposed to 10 mJ/cm^2 UVB radiation every 48 h for 14 days. Cells were then collected and equal amount of cells were then re-seeded into 96 well plate with soft agar. After 10 days of incubation, cells were stained and dissolved and the fluorescent intensity was determined. *p<0.05 versus control group, **p<0.05 versus UV group.
HaCaT cells were exposed to 10 mJ/cm^2 UVB radiation every 48 h for 14 days. As only cancerous cells can survive in the soft-agar, by staining the survival cells with fluorescent dye, the cell transformation rate was determined.

For the next series, the system named is ONOO^− in HaCaT cells. The series can be described thus: Peroxynitrite measurement (DAR) after UVB radiation. The series is classed as cell-based, Human. Particulars: 20 μM carnosol. How it is done:
(§3) FIGS. 4A-4B: Quantitative analysis of NO* and ONOO^− after UVB radiation. HaCaT cells were irradiated with UVB radiation in the presence or absence of carnosol (20 μM). At indicated time point, cells were stained with DAF-2DA or DAR. The fluorescent intensity was then measured and normalized to cell viability. (FIG. 4A) Quantitative measurement of NO*. (FIG. 4B) Quantitative measurement of ONOO^−. *p<0.05 versus corresponded group with carnosol treatment upon UVB radiation.
(§4) The level of NO* was measured by 5 mM diaminofluorescein diacetate (DAF-2DA) (ex490/em520 nm) and ONOO^− was measured by 5 mM diaminorhodamine (DAR) (ex488/em515 nm). 1×10^5 HaCaT cells were seeded in 96-well plate one day before measurement. […] The cells were then incubated in dark for 2 h at room temperature and the fluorescence was measured by luminometer (Molecular devices Spectra Max M2). The reading was then normalized by AlamarBlue cell viability assay (Life technology). 10% of the Alamar Blue reagent was added to cells with medium followed by 2 h incubation at 37° C. in dark then read the fluorescent at ex570/em590 nm using luminometer (Molecular devices Spectra Max M2).
(§5) Both NO* and ONOO^− are induced by UVB radiation. By using DAF-2DA (5 mM) and DAR (5 mM), the effect of carnosol on intracellular NO* and ONOO^− level, in a time dependent manner upon UVB radiation, was also measured.

For the next series, the system named is NO* in HaCaT cells. As to the kind of experiment: Nitric oxide measurement (DAF-2DA) after UVB radiation. The series is classed as cell-based, Human. Particulars: 20 μM carnosol. As to the method:
as §3, §4, §5

Setting [4] is: average from 2 h to 24 h post UVB.

`CC(C)c1cc2c(c(O)c1O)[C@@]13CCCC(C)(C)[C@@H]1C[C@@H]2OC3=O` [carnosol]: in the series with phosphor-Chk, the “phosphorylation level of Chk” value was “reduced”. Moreover, in series [1], the “phosphorylation level of H2AX” value is “reduced”. Besides, in series [2], the “6-4 PP formation after UVB radiation” value is recorded as “no significant reduction”. In series [3], the “decomposition upon UVB radiation” value was “breaks down to 4 major products”. In addition, in the series on HaCaT cells, the cell transformation result is reported as “about 2.2 fold”. Moreover, the “reduction of ONOO^− level” value with ONOO^− in HaCaT cells (setting [4]) is “about 40%”. The “ONOO^− level of cells without radiation” value in the series on ONOO^− in HaCaT cells (no UVB) is “little effect”. The “reduction of NO* level” value in the series with NO* in HaCaT cells (setting [4]) was “about 40%”. Also, the “NO* level of cells without radiation” value in the series with NO* in HaCaT cells (no UVB) is “little effect”.
